# Tests used:
# Test in all cases: whole plant or invertebrate
# Assay type in all cases: in vivo
# [1] = system: cucumber downy mildew (Pseudoperonospora cubensis); conditions: 168 h, read-out: % Control CDM (percent disease control)
# [2] = system: wheat powdery mildew (Erysiphe graminis f. sp. tritici); conditions: Blumeria graminis, read-out: % Control WPM (percent disease control)
# [3] = system: rice sheath blight (Pellicularia filamentosa f. sp. sasiki); conditions: Oryza sativa, 120 h, read-out: % Control RSB (percent disease control)
# [4] = system: wheat stem rust (Puccinia graminis f. sp. tritici Race 15B-2); conditions: 336 h, read-out: % Control WSR (percent disease control)
# [5] = system: rice blast (Piricularia oryzae); conditions: Pyricularia oryzae, 192 h, read-out: % Control RB (percent disease control)
SMILES,pest or weed control at 200 ppm [1] [%],pest or weed control at 200 ppm [2] [%],pest or weed control at 200 ppm [3] [%],pest or weed control at 200 ppm [4] [%],pest or weed control at 200 ppm [5] [%]
"CCCCC(Cn1cncn1)(C(=O)N=[N+]=[N-])c1ccc(Cl)cc1 (stereo not shown) [Example 5, 2-(4-Chlorophenyl)-2-[(1,2,4-triazol-1-yl)methyl]hexanoylazide]",20,100,0,70,
"[C-]#[N+]C(CCCC)(Cn1cncn1)c1ccc(Cl)cc1 (stereo not shown) [Example 9, 2-(4-Chlorophenyl)-1-(1,2,4-triazol-1-yl)-2-hexylisocyanide]",0,100,0,90,80
"CCCCC(Cn1cncn1)(NC=O)c1ccc(Cl)cc1 (stereo not shown) [Example 8, N-[2-(4-Chlorophenyl)-1-(1,2,4-triazol-1-yl)-2-hexyl]formamide]",0,100,,60,0
"C=CC(CCCC)(Cn1cncn1)c1ccc(Cl)cc1 (stereo not shown) [Example 4, 3-(4-Chlorophenyl)-3-[(1,2,4-triazol-1-yl)methyl]-1-heptene]",80,100,60,100,80
"[C-]#[N+]CC(CCCC)(Cn1cncn1)c1ccc(Cl)cc1 (stereo not shown) [Example 2, 2-(4-Chlorophenyl)-2-[(1,2,4-triazol-1-yl)methyl]hexylisocyanide]",0,80,0,100,0
"CCCCC(C=NO)(Cn1cncn1)c1ccc(Cl)cc1 (stereo not shown) [Example 6, 2-(4-Chlorophenyl)-(E,Z)-1-hydroxyamino-2-[(1,2,4-triazol-1-yl)methyl]hexanal]",0,100,0,100,0
"CCCCC(C=O)(Cn1cncn1)c1ccc(Cl)cc1 (stereo not shown) [Example 3, 2-(4-Chlorophenyl)-2-[(1,2,4-triazol-1-yl)methyl]hexanal]",0,100,50,100,70
"CCCCC(Cn1cncn1)(NC(C)=O)c1ccc(Cl)cc1 (stereo not shown) [Example 10, N-[2-(4-Chlorophenyl)-1-(1,2,4-triazol-1-yl)-2-hexyl]acetamide]",0,30,70,0,0
"CCCCC(CNC=O)(Cn1cncn1)c1ccc(Cl)cc1 (stereo not shown) [Example 1, N-(2-(4-Chlorophenyl)-2-[(1,2,4-triazol-1-yl)methyl]hexyl)formamide]",0,80,0,0,0

# From patent US5364870A (priority 1993, dated 1994)
